2 substances from patent publication US20220202912A1, “Polypeptides in Preparation of Drugs for Treatment or Prevention of Rheumatoid Arthritis” (priority 2011, published 2022) can be followed below.

One data set concerns TNF-α. The data set is described as follows: immunohistochemistry of TNF-α in ankle joints, AIA transgenic TNF-luc mice. It is filed as in vivo, BALB/c transgenic TNF-luc mice. The note with it: Adalimumab 8 mg/kg, mPEG-SC20k-HM-3 20 mg/kg. On the procedure:
Changes of expression of TNF-α and IL-6 are analyzed by HE staining and immunohistochemistry in the ankle joint, spleen and thymus of the mice. Observation and photographing are performed under the FOVs of ×200 and ×400 times respectively, 5 FOVs are taken randomly for each picture, and data statistics is performed.

Data set [1] relates to macrophages (PMA-induced U937 cells). Kind of data set: flow cytometry macrophage apoptosis test (AV-FITC/PI). It is filed as cell-based, Human. The note with it: 24 h; Adalimumab 50 μg/mL, mPEG-SC20k-HM-3 13.5 μmol/L. On the procedure: Human U937 cells are added to a 6-well plate (1.5×10^5 cells/mL), PMA (25 ng/mL) is added to perform induction for 48 h for differentiation into macrophages, and the macrophages are added to the positive drug Adalimumab group (50 μg/mL), the HM-3 control group (13.5 μmol/L), the mPEG-SC20k-HM-3 group (13.5 μmol/L), isovolumetric PBS is added to the blank group and the model group, and the cells are incubated in a CO2 incubator at 37° C. for 24 h. For the H2O2 group (3%, 20 μL/mL volume) test, hydrogen peroxide is added in the first half hour to normal cells for apoptosis induction control.
1000 g of solution is centrifuged for 5 min, and supernatant is discarded. Washing is performed once with PBS.
The apoptosis is tested on the flow cytometer according to the instructions of the AV-FITC/PI apoptosis kit.
In general terms: Flow cytometry measures light scatter and fluorescence of single cells or particles in a stream.

In another data set the test system is AIA rat models. The data set is described as follows: adjuvant-induced arthritis (AIA) rat models. It is filed as in vivo, SD rats. The note with it: for clinical scoring / swelling of left paw / swelling of right paw: 5 times.
Another data set relates to cotton ball granuloma. It is filed as in vivo, SD rats. The note with it: day 8. On the procedure:
The rats are randomly divided into a model control group, a positive control (dexamethasone) group, and mPEG-SC20k-HM-3 groups using subcutaneous injection at a high dose, a medium dose and a low dose, a total of 5 groups, and the drugs are administered to each group of animals by subcutaneous injection, for 7 days in succession.
Rats in each group are anesthetized with pentobarbital sodium (40 mg/kg) by intraperitoneal injection, and the abdominal coat is cut off. The skin in the middle of the lower abdomen is cut open under aseptic condition, and the incision is about 1 cm long. The subcutaneous tissue is expanded by vascular forceps, and 30 mg of sterile dry cotton balls (weighed accurately by an electronic balance before the test, and undergoing conventional autoclaving and drying for later use) are implanted hypodermically into the groin on one side. The incision is sutured, and an appropriate amount of amoxicillin is sprinkled on the incision to prevent infection.
The drug is administered on the same day after surgery, and is administered for 7 days in succession. On day 8, the rats are killed by cervical dislocation, the cotton balls are removed surgically, the fat tissue is removed, and the […] at 60° C. The mass of granuloma is expressed in mg (granulomatoma)/100 g (body weight). The granuloma mass difference between each administration group and the model control group is compared, and the inhibition rate is calculated. Data statistical analysis is performed on significant differences between the groups.
Inhibition rate (%)=(average granuloma mass of model control group−average granuloma mass of administration group)/average granuloma mass of model control group×100%.

The next data set has as its system HUVECs. Kind of data set: Western blot of protein expression in HUVECs. It is filed as cell-based, human. The conditions noted are these: 0.5-8.0 μmol/L, 24 h. On the procedure:
3.2 After the third generation of human umbilical vein endothelial cells (HUVECs) are cultured in a 6-well plate to more than 80% fusion, the polypeptide mPEG-SC20k-HM-3 is added to final concentrations of 0.5, 1.0, 2.0, 4.0, 8.0 μmol/L, and PBS is used as a blank control. The cells are incubated in a CO2 incubator at 37° C. for 24 h; the cells are digested with 0.25% trypsin and counted, the solution is centrifuged at 3000 rpm for 5 min, and the cells are collected.
3.3 A protein extract solution is added at 20 μL/1×10^5 cells, and the cells are pipetted and dispersed, and stand at 4° C. for 30 min to lyse the cells.
3.4 1/4 volume of 5×protein loading buffer is added, and boiling water bath is performed for 5-10 min.
3.5 20 μL of protein sample is taken and 10% SDS-PAGE electrophoresis is performed.
3.6 The protein on the gel is transferred to the PVDF membrane by using a wetting transfer method with a constant current of 100 mA for 1-2.5 h.
3.7 The PVDF membrane is blocked with a blocking solution at room temperature for 2 h.
3.8 The membrane is washed for 3 times with PBST, 5 min each time. A primary antibody is added and the membrane stands at 4° C. overnight or is incubated at 37° C. for 2 h.
3.9 The membrane is washed for 3 times with PBST, 5 min each time. A secondary antibody is added and the membrane is incubated at room temperature for more than 2 h. […]
(Immunoblotting shows a protein as a band on a membrane.)

Where [2] appears, read: high dose 40 mg/kg once the other day.
Setting [3] is: low dose 10 mg/kg once the other day.
[4] abbreviates: medium dose 20 mg/kg once the other day.

Like-named read-outs stand apart in the source and are kept apart here. Where no end group is shown, it is not given here.

On to Adalimumab [reference compound], for which the “immunohistochemical score of TNF-α in ankle joint cavity” value with TNF-α was 0.246±0.110. In addition, in data set [1], the “rate of early apoptosis of macrophages” value stood at 14.2% and the “rate of late apoptosis of macrophages” value is listed as 15.2%.

As to “mPEG-SC20k-Ile-Val-Arg-Arg-Ala-Asp-Arg-Ala-Ala-Val-Pro-Gly-Gly-Gly-Gly-Arg-Gly-Asp ({mPEG‑SC 20k}-IVRRADRAAVPGGGGRGD) [polypeptide III, No. 3]”, in the data set on AIA rat models (setting [2]), the clinical scoring is given as 5.29 ± 3.90, the “swelling of left paw” value was determined as 4.40 ± 0.91 mm and the “swelling of right paw” value was 1.05 ± 1.31 mm. Besides, in the data set on AIA rat models (setting [3]), the clinical scoring worked out at 5.43 ± 2.15, the “swelling of left paw” value came out at 4.40 ± 0.91 mm and the “swelling of right paw” value came out at 0.76 ± 1.21 mm. For the same substance, in the data set with AIA rat models (setting [4]), the clinical scoring is listed as 5.71 ± 2.36, the “swelling of left paw” value was determined as 4.48 ± 1.72 mm and the “swelling of right paw” value was 1.28 ± 1.27 mm. In the data set with AIA rat models (rat, in vivo), the “therapeutic effect on adjuvant-induced arthritis in rats (conclusion)” value was “CONCLUSION: polypeptide III has therapeutic effect on adjuvant-induced arthritis, and its effect is higher than that of polypeptide. I”. For the same substance, in the data set with cotton ball granuloma (5 mg/kg sc once two days (G5)), the “Inhibition rate of cotton ball granuloma” value is listed as 35.67% and the cotton ball granuloma is given as 0.19 ± 0.03 mg(cotton ball granuloma)/100 g(weight). Moreover, in the data set with cotton ball granuloma (10 mg/kg sc once two days (G4)), the “Inhibition rate of cotton ball granuloma” value amounted to 39.33% and the cotton ball granuloma is recorded as 0.18 ± 0.02 mg(cotton ball granuloma)/100 g(weight). In the data set on cotton ball granuloma (20 mg/kg sc once two days (G3)), the “Inhibition rate of cotton ball granuloma” value is 38.23% and the cotton ball granuloma is 0.18 ± 0.03 mg(cotton ball granuloma)/100 g(weight). Further, the “immunohistochemical score of TNF-α in ankle joint cavity” value in the data set with TNF-α amounted to 0.149±0.047. Further, in data set [1], the “rate of early apoptosis of macrophages” value is reported as 28.0% and the “rate of late apoptosis of macrophages” value came out at 14.7%. For the same substance, in the data set on HUVECs, the “expression of VEGF in HUVECs” value is on record as “down-regulated”; the “expression of integrin αν, integrin β3, MEK1, p-MEK1, PI3K, AKT1, p-AKT1, ERK1/2 and p-ERK1/2 in HUVECs” value is recorded as “down-regulated”.
